Values quoted from earlier work in patent US20230010484A1, “METHOD FOR THE DECOLORIZATION OF KERATIN MATERIAL THAT HAS BEEN DYED USING A PIGMENT” (Henkel AG & Co. KGaA, priority 2019, published 2023).

Details: 25° C.

Structure (SMILES) | solubility in water (in words) | solubility in water
O=C([O-])C1=NN(c2ccc(S(=O)(=O)[O-])cc2)C(=O)C1N=Nc1ccc(S(=O)(=O)[O-])cc1.[Na+].[Na+].[Na+] (stereo not shown) [Acid Yellow 23, trisodium salt of 4,5-dihydro-5-oxo-1-(4-sulfophenyl)-4-((4-sulfophenyl)azo)-1H-pyrazole-3-carboxylic acid] | highly soluble | 
O=C([O-])c1c(Cl)c(Cl)c(Cl)c(Cl)c1-c1c2c(Br)cc(=O)c(Br)c-2oc2c(Br)c(O)cc(Br)c12.O=C([O-])c1c(Cl)c(Cl)c(Cl)c(Cl)c1-c1c2c(Br)cc(=O)c(Br)c-2oc2c(Br)c(O)cc(Br)c12.[Na+].[Na+] [Acid Red 92, disodium salt of 3,4,5,6-tetrachloro-2-(1,4,5,8-tetrabromo-6-hydroxy-3-oxoxanthen-9-yl)benzoic acid] |  | greater than 10 g/L
Nc1cc(S(=O)(=O)[O-])cc2cc(S(=O)(=O)[O-])c(N=Nc3ccccc3)c(O)c12.[Na+].[Na+] [Acid Red 33, dinatrium salt of 5-amino-4-hydroxy-3-(phenylazo)-naphthalene-2,7-disulphonate] |  | about 2.5 g/L
O=S(=O)([O-])c1ccc(N=Nc2c(O)ccc3ccccc23)cc1.[Na+] [Acid Orange 7, sodium salt of 4-[(2-hydroxy-1-naphthyl)azo]benzene sulphonate] |  | more than 7 g/L
